One assay concerns HT-29 tumor cells. Put plainly: Anti-proliferative activity, SRB assay. Particulars: 72 hours exposure, read-out: CELLULAR IC50 HT-29. Type of assay: cell-based, human. As for the experimental part:
We observed the surprising finding that compounds of the invention were useful in inhibiting proliferation of HT-29 tumor cells (see Table 3).
3,000-15,000 cells/well were exposed to the test compounds at various concentrations appropriate to determine an IC50, for 72 hours, and cell proliferation was measured using the SRB assay according to Shekan et al (J Natl Cancer Inst (1990) 82, 1107-112) in order to estimate the IC50 values shown in Table 3. Briefly, cells were plated in 96 well dishes 24 hours prior to compound addition. The assay was terminated with the addition of cold TCA to a final concentration of 10% and the plates were incubated for one hour at 4° C. The plates were then washed 5 times with water and 100 μl of a Sulforhodamine B solution (4%) was added to each well. The plate was then incubated for 10 minutes at room temperature before removal of unbound dye by washing with 1% acetic acid. The bound dye was solubilized with 10 mM Trizma base and the absorbance read at OD570. Inhibitory activity of the compounds was calculated as % inhibition of cell proliferation compared to cells treated with the solvent (DMSO).
On the technique in general: The SRB assay estimates cell density from bound dye.

For a further assay, the target named is B-Raf delta1-415 (Homo sapiens, UniProt P15056). In words: B-Raf kinase inhibition (MAPH filter plate, 33P-ATP, MEK1 substrate). The conditions noted are these: read-out: Biochemical IC50 B-Raf. From the text: We characterized the in vitro inhibitory activity against protein kinases of compounds of the present invention by determining their IC50 values (see Table 2).
Kinase: B-Raf delta1-415 (e.g., Upstate Cat. No. 14-530)
Reaction Temperature: room temperature
Assay Plate: 96 well U bottom plate (Greiner, 650161)
MultiScreen-PH Plate: 96 well MAPH Filter Plates (Millipore, MAPHNOB50)
Filter Washing Solution: 0.75% H3PO4
Szintilation Liquid: Supermix Liquid Szintillator (PerkinElmer, 1200-439)
Negative Control (C−): 100 mM EDTA, no Inhibitor
Positive Control (C+): no Inhibitor
Reaction Buffer: 20 mM Mops, pH 7.0 • 10 mM MgCl2 • 0.4 mM MnCl2 • 100 mM NaCl • 1 mM DTT • 0.01% NP40
Final Assay Concentrations:
Kinase: Kinase conc. yielding 50% substrate turnover as determined in titration experiment.
Adenosine 5′-[γ-^33P]triphosphate: 12.5 μCi/ml (Amersham Biosciences, BF1000)
Pipetting Sequence: • 1) Add 10 μl 4-fold concentrated substrate in 3-fold concentrated reaction buffer to each well of assay plate • 2) Add 10 μl 4-fold concentrated inhibitor in 4% DMSO in H2O to each well except to C− and C+ wells (starting point: final inhibitor concentration 10 μM; IC50 determination based on dilution series) • 3) Add 10 μl 4% DMSO in H2O to C− and C+ wells • 4) Add 10 μl 500 mM EDTA in H2O to C− wells • 5) Add 10 μl 50 μCi/ml adenosine 5′-[γ-^33P]triphosphate in H2O+4-fold cold ATP to each well • 6) Add 10 μl 4-fold concentrated kinase in reaction buffer to each well • 7) Incubate 1 hr at room temperature • 8) Add 10 μl 50 mM EDTA in H2O to each well except to C− wells • 9) Prepare MAPH plates by adding 200 μl 0.75% H3PO4 to each well • 10) Exhaust 0.75% H3PO4 using Millipore vacuum station • 11) Add 60 μl 0.75% H3PO4 to each well of MAPH filter plate • 12) Transfer 30 μl sample per well from assay plate to corresponding well of MAPH filter plate • 13) Incubate 30 min at room temperature • 14) Wash each well of MAPH filter plates 3× with 200 μl 0.75% H3PO4 using Millipore vacuum station • 15) Add 20 μl scintillation liquid to each well of MAPH filter plate • 16) Seal MAPH filter plate • 17) Store MAPH filter plate 30 min in darkness • 18) Quantify radioactivity using scintillation counter (MicroBeta, Perkin-Elmer)

Read-outs that look alike come from different tables or passages of the source. Bounds are passed on as bounds.

Chain of B-Raf delta1-415 (P15056 416-766): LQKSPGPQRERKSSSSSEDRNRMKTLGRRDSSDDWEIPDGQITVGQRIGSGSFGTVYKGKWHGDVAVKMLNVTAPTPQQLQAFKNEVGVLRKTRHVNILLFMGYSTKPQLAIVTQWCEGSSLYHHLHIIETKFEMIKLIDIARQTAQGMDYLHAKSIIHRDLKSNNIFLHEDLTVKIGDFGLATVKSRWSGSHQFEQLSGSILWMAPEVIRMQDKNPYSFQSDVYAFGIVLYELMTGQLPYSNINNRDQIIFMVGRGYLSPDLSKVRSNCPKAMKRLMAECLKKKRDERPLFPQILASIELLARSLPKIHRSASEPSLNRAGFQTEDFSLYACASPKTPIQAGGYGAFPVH

Usually IC50 stands for the concentration that inhibits the measured activity by half. Take `COn1c(=O)c(-c2c(Cl)cccc2Cl)cc2cnc(Nc3ccc(CN4CC[C@@H](O)C4)cc3)nc21` [Compound 179, 6-(2,6-Dichlorophenyl)-2-(4-(3-(R)-hydroxypyrrolidinomethyl)phenyl)-amino-8-methoxy-pyrido[2,3-d]pyrimidin-7-one]: the concentration for half-maximal inhibition (IC50) with HT-29 tumor cells (Homo sapiens, HT-29, 72 h) is below 1 µM; on B-Raf delta1-415, below 0.1 µM. `O=c1c(-c2c(F)cccc2Cl)cc2cnc(Nc3ccc(N4CCOCC4)cc3)nc2n1OC[C@@H]1CCNC1` [Compound 149]: the half-maximal inhibitory concentration (IC50) was below 1 µM in the assay with HT-29 tumor cells (Homo sapiens, HT-29, 72 h) and below 0.1 µM on B-Raf delta1-415.

Consider `COc1cccc(Nc2ncc3cc(-c4c(F)cccc4Cl)c(=O)n(OC[C@H](O)CO)c3n2)c1` [Compound 76, 6-(2-Chloro-6-fluorophenyl)-8-(2-(R)-2,3-dihydroxypropyl)oxy-2-(3-methoxyphenyl)amino-pyrido[2,3-d]pyrimidin-7-one], for which the IC50 in the assay on HT-29 tumor cells (Homo sapiens, HT-29, 72 h) is below 1 µM; on B-Raf delta1-415, below 0.5 µM.

For `COn1c(=O)c(-c2c(F)cccc2Cl)cc2cnc(Nc3ccc(N4CCNCC4)c(Cl)c3)nc21` [Compound 199, 6-(2-Chloro-6-fluorophenyl)-2-(3-chloro-4-piperazinophenyl)-amino-8-methoxy-pyrido[2,3-d]pyrimidin-7-one], the IC50 in the assay with HT-29 tumor cells (Homo sapiens, HT-29, 72 h) is below 1 µM; on B-Raf delta1-415, below 0.1 µM. The matching figures for `COn1c(=O)c(-c2c(Cl)cccc2Cl)cc2cnc(NCc3ccccc3)nc21` [Compound 145, 6-(2,6-Dichlorophenyl)-8-methoxy-2-phenylmethylamino-pyrido[2,3-d]pyrimidin-7-one]: below 10 µM and below 10 µM. The matching figures for `CNC(=O)c1cccc(Nc2ncc3cc(-c4c(Cl)cccc4Cl)c(=O)n(OC)c3n2)c1` [Compound 131, 6-(2,6-Dichlorophenyl)-8-methoxy-2-(3-methylaminocarbonylphenyl)-amino-pyrido[2,3-d]pyrimidin-7-one]: below 1 µM and below 0.1 µM.

In the case of `CC(C)On1c(=O)c(-c2ccccc2Cl)cc2cnc(Nc3ccccc3)nc21` [Compound 65], the IC50 with HT-29 tumor cells (Homo sapiens, HT-29, 72 h) was above 10 µM; at B-Raf delta1-415, above 10 µM. `O=c1c(-c2c(F)cccc2Cl)cc2cnc(Nc3ccc(N4CCOCC4)cc3)nc2n1OCc1cccnc1` [Compound 132]: the IC50 was below 1 µM with HT-29 tumor cells (Homo sapiens, HT-29, 72 h) and below 0.1 µM at B-Raf delta1-415.

Turning to `COn1c(=O)c(-c2c(Cl)cccc2Cl)cc2cnc(Nc3ccc(CN4CCOCC4)cc3)nc21` [Compound 100, 6-(2,6-Dichlorophenyl)-8-methoxy-2-(4-morpholinomethylphenyl)-amino-pyrido[2,3-d]pyrimidin-7-one], the IC50 was below 1 µM with HT-29 tumor cells (Homo sapiens, HT-29, 72 h) and below 0.5 µM on B-Raf delta1-415. The like results for `COn1c(=O)c(-c2c(Cl)cccc2Cl)cc2cnc(Nc3cccc(CN4CC[C@H](O)C4)c3)nc21` [Compound 181, 6-(2,6-Dichlorophenyl)-2-(3-(3-(S)-hydroxypyrrolidinomethyl)phenyl)-amino-8-methoxy-pyrido[2,3-d]pyrimidin-7-one] were, in that order, below 1 µM and below 0.5 µM. The matching figures for `O=c1c(-c2c(F)cccc2Cl)cc2cnc(Nc3ccc(N4CCOCC4)cc3)nc2n1OC[C@H]1CCNC1` [Compound 155]: below 1 µM and below 0.1 µM.

As for `CO/N=C/c1ccc(Nc2ncc3cc(-c4c(Cl)cccc4Cl)c(=O)n(OC)c3n2)cc1` [Compound 209, 2-(4-(methoximino)methylphenyl)-amino-6-(2,6-dichlorophenyl)-8-methoxy-pyrido[2,3-d]pyrimidin-7-one], the IC50 in the assay on HT-29 tumor cells (Homo sapiens, HT-29, 72 h) is below 1 µM; at B-Raf delta1-415, below 1 µM. Regarding `COn1c(=O)c(-c2c(Cl)cccc2Cl)cc2cnc(Nc3ccccc3F)nc21` [Compound 190, 6-(2,6-Dichlorophenyl)-2-(2-fluorophenyl)amino-8-methoxy-pyrido[2,3-d]pyrimidin-7-one], the IC50 was below 1 µM in the assay on HT-29 tumor cells (Homo sapiens, HT-29, 72 h) and above 1 µM on B-Raf delta1-415. The like results for `Cn1cc(Nc2ncc3cc(-c4c(Cl)cccc4Cl)c(=O)n(OC[C@H](O)CO)c3n2)cc1C(=O)NCCN1CCCC1` [Compound 108, 6-(2,6-Dichlorophenyl)-8-(2-(R)-2,3-dihydroxypropyl)oxy-2-(5-(2-pyrrolidinoethyl)aminocarbonyl-1-methyl-pyrrol-3-yl)-amino-pyrido[2,3-d]pyrimidin-7-one] were, in that order, below 1 µM and below 0.5 µM. The like results for `COCCOn1c(=O)c(-c2cc(NC(=O)c3ccccc3)ccc2Cl)cc2cnc(Nc3ccc(N4CCN(C)CC4)cc3)nc21` [Compound 106, 6-(5-Benzoylamino-2-chloro-phenyl)-8-(2-methoxyethyl)oxy-2-(4-(4-methylpiperazino)-phenylamino)-pyrido[2,3-d]pyrimidin-7-one] were, in that order, below 1 µM and below 0.5 µM.

As to `COn1c(=O)c(-c2c(Cl)cccc2Cl)cc2cnc(Nc3nc(C(=O)N(C)CCO)cs3)nc21` [Compound 138, 6-(2,6-Dichlorophenyl)-8-methoxy-2-(4-N-(2-hydroxyethyl)-N-methyl-aminocarbonyl-thiazol-2-yl)-amino-pyrido[2,3-d]pyrimidin-7-one], the half-inhibitory concentration (IC50) in the assay on HT-29 tumor cells is below 10 µM; on B-Raf delta1-415, below 1 µM. In the case of `COn1c(=O)c(-c2c(Cl)cccc2Cl)cc2cnc(NCc3cccnc3)nc21` [Compound 146, 6-(2,6-Dichlorophenyl)-8-methoxy-2-pyrid-3-ylmethylamino-pyrido[2,3-d]pyrimidin-7-one], the IC50 in the assay with HT-29 tumor cells (Homo sapiens, HT-29, 72 h) is below 10 µM; on B-Raf delta1-415 it was below 0.5 µM. Regarding `COc1cc(Nc2ncc3cc(-c4c(F)cccc4Cl)c(=O)n(OC)c3n2)ccc1N1CCNCC1` [Compound 214, 6-(2-Chloro-6-fluorophenyl)-8-methoxy-2-(3-methoxy-4-piperazinophenyl)-amino-pyrido[2,3-d]pyrimidin-7-one], the IC50 was below 1 µM in the assay on HT-29 tumor cells (Homo sapiens, HT-29, 72 h) and below 0.1 µM at B-Raf delta1-415. With `COn1c(=O)c(-c2c(Cl)cccc2Cl)cc2cnc(Nc3cc(C(=O)N(C)CCO)n(C)c3)nc21` [Compound 116, 6-(2,6-Dichlorophenyl)-2-(5-(N-(2-hydroxyethyl)-N-methyl-amino)carbonyl-1-methyl-pyrrol-3-yl)-amino-8-methoxy-pyrido[2,3-d]pyrimidin-7-one], the half-inhibitory concentration (IC50) with HT-29 tumor cells (Homo sapiens, HT-29, 72 h) was below 1 µM; on B-Raf delta1-415 it was below 0.1 µM. As to `NCCCCOn1c(=O)c(-c2c(Cl)cccc2Cl)cc2cnc(Nc3ccccc3)nc21` [Compound 66, 8-(4-Aminobutyl)oxy-6-(2,6-dichlorophenyl)-2-phenylamino-pyrido[2,3-d]pyrimidin-7-one], the IC50 at B-Raf delta1-415 is below 0.1 µM. For `Cn1cc(Nc2ncc3cc(-c4c(F)cccc4Cl)c(=O)n(OCC4CCOCC4)c3n2)cc1C(=O)N1CCNCC1` [Compound 224, 6-(2-Chloro-6-fluorophenyl)-2-(5-(piperazinocarbonyl)-1-methyl-pyrrol-3-yl)-amino-8-(tetrahydropyran-4-ylmethyl)oxy-pyrido[2,3-d]pyrimidin-7-one], the concentration for half-maximal inhibition (IC50) in the assay on HT-29 tumor cells (Homo sapiens, HT-29, 72 h) is below 1 µM. The same measure, in the same setting: next, `COc1cc(Nc2ncc3cc(-c4c(Cl)cccc4Cl)c(=O)n(OC)c3n2)ccc1N1CCNCC1` [Compound 227, 6-(2,6-Dichlorophenyl)-8-methoxy-2-(3-methoxy-4-piperazino-phenyl)-amino-pyrido[2,3-d]pyrimidin-7-one]: below 1 µM. In the case of `CN1CCN(c2ccc(Nc3ncc4ccc(=O)n(OC(C)(C)C)c4n3)cc2)CC1` [Compound 233], the IC50 at B-Raf delta1-415 is above 1 µM.

As for `CN1CCN(c2ccc(Nc3ncc4ccc(=O)n(OC5CCCCC5)c4n3)cc2)CC1` [Compound 236], the concentration for half-maximal inhibition (IC50) in the assay with HT-29 tumor cells (Homo sapiens, HT-29, 72 h) was below 1 µM.

For the origin of these results see patent US8518958B2, “Pyrido [2,3-D] pyrimidines and their use as kinase inhibitors” (Forma Therapeutics, Inc., priority 2006, dated 2013).
